Assays:
DP9 = DP9 (Homo sapiens, UniProt Q86TI2); test: DP9 assay; type: biochemical; conditions: for Selectivity DP9(IC50)/DPIV(Ki): ratio IC50 DP9 / Ki DP IV
Protocol: Determination of IC50 values for DPII and DP9 are done similarly as described for DP IV.
For DP9 Gly Pro-AMC is used as substrate in a final concentration of 0.25 mM.

DP IV [1] = target: T1, DP IV (Homo sapiens, UniProt P27487); test: DP IV inhibition IC50, parallel-synthesis compounds tested directly following synthesis (without purification); type: biochemical; parameters: IC50 DP4; other: tested directly following parallel synthesis, without purification; compounds of formula (Ib) from parallel synthesis, tested directly following synthesis; conditions: DP IV inhibition; compounds of formula (Ib) from parallel synthesis, tested directly following synthesis (without purification); read-out: IC50
Summary of the method: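 Porcine kidney or recombinant human enzyme (~40-50 μU/ml, HEPES buffer) hydrolysing Gly-Pro-pNA at room temperature, with 5% DMSO final; 11-point 1:2 dilutions from 100 μM final, in duplicate. pNA release read at 405 nm over ~18 min; slopes vs solvent control give residual activity, and IC50 comes from a 4-parameter fit.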

DP IV [2] = target: T1, DP IV; test: Ki and inhibition type, DP IV; type: biochemical; conditions: compounds obtained by preparative synthesis
Summary of the method: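 Ki by non-linear regression of 7 inhibitor dilutions (range from IC50) against 4 substrate dilutions, in triplicate, using purified human recombinant enzyme under IC50 assay conditions. Inhibition type assigned from the best-fitting equation (competitive, partial competitive, non-competitive); […].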

[3] = target: dipeptidyl peptidase (DP IV) (UniProt P27487); test: Determination of IC50 against DP IV (hydrolysis of Gly-Pro-pNA); type: biochemical, porcine kidney or recombinant human; conditions: compounds obtained by preparative synthesis
Summary of the method: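 Porcine kidney or recombinant human DP IV (about 40–50 μU/ml) in HEPES pH 7.6 (I=0.32) with Gly-Pro-pNA at room temperature, 5% DMSO, 11 twofold dilutions from 100 μM final. pNA release at 405 nm over ~18 min; slopes give residual activity versus solvent, IC50 by 4-parameter fit.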

[4] = Blood-brain distribution / LogBB; type: in vivo; conditions: male Wistar rats, bolus plus 60 min continuous i.v. infusion; for Kp at 60 min / Kp at 1 h: Wistar (Crl:WI), rat, brain and plasma, iv; for Kp at 1 h: read-out: Brain/Plasma ratio; for LogBB Mean: mean of the animals
Protocol: Male Wistar rats (N=20, 5 per Group; Crl:WI) with a body weight ranging between 300 and 350 g were purchased from Charles River Laboratories (Sulzfeld, Germany).
One week after adaptation to the housing conditions, catheters were implanted into the carotid artery and jugular vein of the rats under general anaesthesia (i.p. injection of 0.25 ml/kg b.w. Rompun® [2%], BayerVital, Germany and 0.5 ml/kg b.w. Ketamin 10, Atarost GmbH & Co., Twistringen, Germany). The animals were allowed to recover for one week. The catheters were flushed with heparin-saline (100 IU/ml) three times per week. In case of dysfunction of the catheter, a new animal were recruited to implant catheters into the carotid artery and jugular vein of this new rat under general anaesthesia. No anaesthetics were administered during infusion for compound transfer.
The bolus dose of compounds were dissolved in 10 μl DMSO and than diluted to 1 ml with saline (0.154 mol/l) and were injected via the venous catheter (n=5 rats). Thereafter, a continuous i.v. infusion of the compound solved in 10 μl DMSO and diluted to 5 ml with saline (infusion rate 0.083 ml/min; Perfusor^R fm, B. Braun, Melsungen AG, Germany) were commenced for 60 min. 150 μl arterial blood samples were taken at 0, 20, 40, 50 and 60 min and stored on ice until centrifugation (12000 rpm for 2 min). Separated plasma were frozen in liquid nitrogen for further analysis.
After 60 min primed-continuous infusion the N=5 rats were heparinized with 50 IU per 100 g b.w. heparin 5 min before the end of protease inhibitor infusion. The rats were quickly anaesthetized with i.a. ketamin® injection and bled to death from the abdominal vessels. The aorta supplying the upper part of the body were separated and canulated. The upper part of the body (including the brain) were perfused with 20 ml ice cold saline to flush the vessels free within the brain. The brains were taken out of the skull, rinsed briefly in ice cold saline and placed on filter paper.
Preparation: The brains were divided into their hemispheres, which were weighed and frozen in liquid nitrogen for further analysis.
In plasma samples and brain tissues concentrations of compounds were measured using the aforementioned LC-MS methods.

Sequence of DP9 (Q86TI2 whole entry, species assumed): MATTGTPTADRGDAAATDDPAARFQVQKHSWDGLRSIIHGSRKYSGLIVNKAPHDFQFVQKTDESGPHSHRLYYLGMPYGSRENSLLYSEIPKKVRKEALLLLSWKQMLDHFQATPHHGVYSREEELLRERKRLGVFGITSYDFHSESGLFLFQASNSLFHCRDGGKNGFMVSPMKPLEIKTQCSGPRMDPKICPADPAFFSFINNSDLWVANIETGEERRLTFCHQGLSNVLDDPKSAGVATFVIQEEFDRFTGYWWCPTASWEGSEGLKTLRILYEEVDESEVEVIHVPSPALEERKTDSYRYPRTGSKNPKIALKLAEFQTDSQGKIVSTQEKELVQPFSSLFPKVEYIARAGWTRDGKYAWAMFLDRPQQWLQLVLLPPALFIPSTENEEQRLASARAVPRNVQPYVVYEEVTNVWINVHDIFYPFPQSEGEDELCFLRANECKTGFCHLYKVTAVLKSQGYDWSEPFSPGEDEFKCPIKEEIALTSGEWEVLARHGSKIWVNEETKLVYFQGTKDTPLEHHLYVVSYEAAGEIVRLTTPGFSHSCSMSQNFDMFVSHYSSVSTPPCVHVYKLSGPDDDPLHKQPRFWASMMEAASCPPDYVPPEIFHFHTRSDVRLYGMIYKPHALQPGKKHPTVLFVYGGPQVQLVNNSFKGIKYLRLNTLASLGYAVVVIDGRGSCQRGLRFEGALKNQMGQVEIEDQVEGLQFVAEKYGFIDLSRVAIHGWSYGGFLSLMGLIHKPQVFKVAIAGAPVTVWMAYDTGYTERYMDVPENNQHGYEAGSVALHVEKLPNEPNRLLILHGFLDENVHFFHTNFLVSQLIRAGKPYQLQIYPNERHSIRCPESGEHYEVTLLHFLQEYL
T1 sequence (P27487 whole entry): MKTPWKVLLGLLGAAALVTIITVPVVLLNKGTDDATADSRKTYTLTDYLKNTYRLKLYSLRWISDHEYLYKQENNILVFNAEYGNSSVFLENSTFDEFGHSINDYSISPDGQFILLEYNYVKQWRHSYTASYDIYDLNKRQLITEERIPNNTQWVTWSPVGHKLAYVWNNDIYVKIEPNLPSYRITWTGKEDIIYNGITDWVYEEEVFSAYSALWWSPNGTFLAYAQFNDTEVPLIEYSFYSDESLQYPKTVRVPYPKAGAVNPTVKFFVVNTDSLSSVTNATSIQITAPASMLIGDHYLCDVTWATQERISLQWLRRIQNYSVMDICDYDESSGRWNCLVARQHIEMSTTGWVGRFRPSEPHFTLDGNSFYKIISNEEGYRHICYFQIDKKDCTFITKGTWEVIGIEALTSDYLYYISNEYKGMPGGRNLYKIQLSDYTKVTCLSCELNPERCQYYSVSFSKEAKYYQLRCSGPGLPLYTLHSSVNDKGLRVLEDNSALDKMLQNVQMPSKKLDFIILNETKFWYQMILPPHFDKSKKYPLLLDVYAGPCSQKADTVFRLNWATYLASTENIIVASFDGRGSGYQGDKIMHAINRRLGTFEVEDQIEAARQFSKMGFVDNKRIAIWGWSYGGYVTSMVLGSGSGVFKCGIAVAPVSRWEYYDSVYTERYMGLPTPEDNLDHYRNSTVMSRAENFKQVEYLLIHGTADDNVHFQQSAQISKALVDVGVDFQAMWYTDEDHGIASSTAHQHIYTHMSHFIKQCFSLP

SMILES	Selectivity DP9(IC50)/DPIV(Ki) (DP9)	IC50 (DP IV [1]) [µM]	Ki (DP IV [2]) [µM]	IC50 [3] [µM]	LogBB ([4]; Animal No. 1)	LogBB ([4]; Animal No. 2)	LogBB ([4]; Animal No. 3)	LogBB ([4]; Animal No. 4)	LogBB ([4]; Animal No. 5)	Kp at 60 min [4]	Kp at 1 h [4]	LogBB Mean [4]	Ki (DP9) [µM]	IC50 (DP9; Gly Pro-AMC 0.25 mM) [µM]
NCc1c(-c2ccc(Cl)cc2Cl)ncn1Cc1ccccc1 [Example 24b, (1-benzyl-4-(2,4-dichlorophenyl)-1H-imidazol-5-yl)methanamine]	25,527	0.9	0.00474	0.123	−0.36	−0.33	−0.26	−0.34	−0.29	0.483	0.483	−0.3160	–	–
NCc1c(-c2ccc(Cl)cc2Cl)ncn1Cc1ccccn1 [Example 39b]	20,951	4.6	0.00568	0.059	−0.56	−0.43	−0.53	−0.38	−0.39	0.275	0.275	−0.4580	–	–
NCc1c(-c2ccc(Cl)cc2Cl)ncn1Cc1cccnc1 [Example 121b, (4-(2,4-dichlorophenyl)-1-((pyridin-3-yl)methyl)-1H-imidazol-5-yl)methanamine]	34,797	4.6	0.00296	0.083	−0.57	−0.50	−0.70	−0.91	–	0.214	0.214	−0.6700	–	–
NCc1c(-c2ccc(Cl)cc2Cl)ncn1Cc1ccsc1 [Example 130b, (4-(2,4-dichlorophenyl)-1-((thiophen-3-yl)methyl)-1H-imidazol-5-yl)methanamine]	12,653	–	0.00769	0.062	−0.65	−0.63	−1.03	−0.12	−0.76	0.23	0.23	−0.6380	21.5	97.3

Source: patent US7728146B2, “Enzyme inhibitors” (Probiodrug AG, priority 2006, dated 2010)
